Reference: the Kinase Knowledgebase extract (Sharma et al. 2016)

The compounds below were run against PIK3CD (Human) (UniProt O00329) (assay: Assessment of PIK3CD Kinase Activity (Scintillation Proximity Assay)).
Sequence of PIK3CD (Human) (O00329 whole entry, looked up): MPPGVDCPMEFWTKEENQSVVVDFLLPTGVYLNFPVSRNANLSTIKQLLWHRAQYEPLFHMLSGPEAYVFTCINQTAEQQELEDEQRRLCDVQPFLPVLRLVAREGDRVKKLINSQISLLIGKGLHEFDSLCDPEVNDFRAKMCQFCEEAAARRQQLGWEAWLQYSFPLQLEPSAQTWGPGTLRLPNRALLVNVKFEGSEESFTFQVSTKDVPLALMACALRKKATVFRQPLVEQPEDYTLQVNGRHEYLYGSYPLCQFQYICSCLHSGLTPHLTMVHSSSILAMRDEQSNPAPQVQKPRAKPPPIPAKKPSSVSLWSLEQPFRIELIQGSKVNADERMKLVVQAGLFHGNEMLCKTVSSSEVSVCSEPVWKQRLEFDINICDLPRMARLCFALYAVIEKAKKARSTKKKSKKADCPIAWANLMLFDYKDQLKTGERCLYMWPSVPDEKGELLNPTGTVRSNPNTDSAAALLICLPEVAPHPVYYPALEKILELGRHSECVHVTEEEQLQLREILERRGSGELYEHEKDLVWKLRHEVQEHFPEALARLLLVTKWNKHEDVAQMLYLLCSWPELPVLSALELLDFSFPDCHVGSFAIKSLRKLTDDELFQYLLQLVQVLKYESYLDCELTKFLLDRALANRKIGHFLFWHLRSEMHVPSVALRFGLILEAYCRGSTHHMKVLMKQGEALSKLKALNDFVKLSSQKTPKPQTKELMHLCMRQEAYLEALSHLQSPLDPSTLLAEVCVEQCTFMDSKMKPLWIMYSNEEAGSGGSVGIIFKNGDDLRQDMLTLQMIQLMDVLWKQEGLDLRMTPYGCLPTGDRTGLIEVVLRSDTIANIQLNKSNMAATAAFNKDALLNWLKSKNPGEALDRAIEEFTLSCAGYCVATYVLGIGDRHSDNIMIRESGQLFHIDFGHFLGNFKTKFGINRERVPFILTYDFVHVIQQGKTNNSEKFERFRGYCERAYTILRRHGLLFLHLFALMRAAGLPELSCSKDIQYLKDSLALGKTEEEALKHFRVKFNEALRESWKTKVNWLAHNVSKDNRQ

SMILES	IC50 [nM]
COc1c(C(C)n2ccc(=O)c3c(N)ncnc32)cc(Cl)c(C)c1C1CN(C(C)C)C1 (centres undefined)	≤ 10
CCOc1c(C(C)n2nc(C)c3c(N)ncnc32)cc(Cl)c(C#N)c1C1CN(CCO)C1 (centres undefined)	≤ 10
CCOc1c(C(C)n2nc(C)c3c(N)ncnc32)cc(Cl)c(C#N)c1C1CNC1 (centres undefined)	≤ 10
CCOc1c(C(C)n2nc(C(F)F)c3c(N)ncnc32)cc(Cl)c(F)c1C1CN(CC(C)(C)O)C1 (centres undefined)	≤ 10
COc1c(C(C)n2nc(C)c3c(N)ncnc32)cc(Cl)c(C)c1-c1cncnc1 (centres undefined)	≤ 10
COc1c(C(C)n2nc(C)c3c(N)ncnc32)cc(Cl)c(C#N)c1C1CN(C(=O)NC(C)(C)C)C1 (centres undefined)	≤ 10
CCOc1c(C(C)n2nc(C(F)F)c3c(N)ncnc32)cc(Cl)c(F)c1C1CN(C(C)C)C1 (centres undefined)	≤ 10
CCOc1c(C(C)n2nc(C)c3c(N)ncnc32)cc(C)c(C#N)c1C1CN(C[C@H](C)O)C1 (some centres undefined)	≤ 10
CCS(=O)(=O)N1CC(c2c(C#N)c(Cl)cc(C(C)n3nc(C)c4c(N)ncnc43)c2OC)C1 (centres undefined)	≤ 10
COc1c(C(C)n2nc(C)c3c(N)ncnc32)cc(Cl)c(C)c1C1CN(C(C)=O)C1 (centres undefined)	≤ 10
CCOc1c(C(C)n2nc(C)c3c(N)ncnc32)cc(Cl)c(F)c1C1CN(CC(F)(F)F)C1 (centres undefined)	≤ 10
COc1c(C(C)n2nc(C)c3c(N)ncnc32)cc(Cl)c(C)c1-c1cncc(C#N)c1 (centres undefined)	≤ 10
CNC(=O)N1CC(c2c(C)c(Cl)cc(C(C)n3nc(C)c4c(N)ncnc43)c2OC)C1 (centres undefined)	≤ 10
CCOc1c(C(C)n2nc(-c3cccc(F)c3)c3c(N)ncnc32)cc(Cl)c(C)c1-c1ccc(C(=O)N(C)C)nc1 (centres undefined)	≤ 10
COc1c(C(C)n2nc(C)c3c(N)ncnc32)cc(Cl)c(C#N)c1C1CN(C(C)CO)C1 (centres undefined)	≤ 10
CCOc1c(C(C)n2nc(C)c3c(N)ncnc32)cc(Cl)c(C)c1-c1ccnc(C(=O)N(C)CCO)c1 (centres undefined)	≤ 10
COc1c(C(C)n2nc(C)c3c(N)ncnc32)cc(Cl)c(C#N)c1C1CN(C2CCC2)C1 (centres undefined)	≤ 10
COc1c(C(C)n2nc(C)c3c(N)ncnc32)cc(Cl)c(C)c1-c1cncc(C(=O)N(C)CCO)c1 (centres undefined)	≤ 10
COc1c(C(C)n2nc(C)c3c(N)ncnc32)cc(Cl)c(C)c1C1CC1 (centres undefined)	10 to 50
COc1c(C(C)n2nc(C)c3c(N)ncnc32)cc(Cl)c(C)c1-c1cnn(CC(=O)N(C)C)c1 (centres undefined)	≤ 10
COc1c(C(C)n2nc(C)c3c(N)ncnc32)cc(Cl)c(C#N)c1-c1ccc(C(=O)N(C)C)nc1 (centres undefined)	≤ 10
COc1c(C(C)n2nc(C)c3c(N)ncnc32)cc(Cl)c(C)c1-c1cncc(C(=O)N2CC(C#N)C2)c1 (centres undefined)	≤ 10

SMILES	IC50 [nM]
CCOc1c(C(C)n2nc(C)c3c(N)ncnc32)cc(Cl)c(F)c1C1CN(CCO)C1 (centres undefined)	≤ 10
CCOc1c(C(C)n2nc(C)c3c(N)ncnc32)cc(Cl)c(C#N)c1-c1ccc(-c2nnn(C)n2)nc1 (centres undefined)	≤ 10
COc1c(C(C)n2nc(C)c3c(N)ncnc32)cc(Cl)c(C#N)c1C1CN(S(=O)(=O)C(C)C)C1 (centres undefined)	≤ 10
CCOc1c(C(C)n2nc(C)c3c(N)ncnc32)cc(Cl)c(C#N)c1-c1ccnc(C(=O)N(C)C)c1 (centres undefined)	≤ 10
CCOc1c(C(C)n2nc(C)c3c(N)ncnc32)cc(Cl)c(C#N)c1C1CN(C(=O)CC)C1 (centres undefined)	≤ 10
COc1c(C(C)n2ccc(=O)c3c(N)ncnc32)cc(Cl)c(C)c1-c1cncc(C#N)c1 (centres undefined)	≤ 10
COc1c(C(C)n2nc(C)c3c(N)ncnc32)cc(Cl)c(C)c1-c1ccc(C(=O)N(C)C)c(F)c1 (centres undefined)	≤ 10
CCOc1c(C(C)n2nc(CC)c3c(N)ncnc32)cc(Cl)c(C)c1-c1ccc(C(=O)N(C)C)nc1 (centres undefined)	50 to 200
COc1c(C(C)n2nc(C)c3c(N)ncnc32)cc(Cl)c(C)c1-c1ccnc(N2CC(O)C2)c1 (centres undefined)	≤ 10
CNC(=O)N1CC(c2c(C#N)c(Cl)cc(C(C)n3nc(C)c4c(N)ncnc43)c2OC)C1 (centres undefined)	≤ 10
COc1c(C(C)n2nc(-c3cn[nH]c3)c3c(N)ncnc32)cc(Cl)c(C)c1C1CN(CC#N)C1 (centres undefined)	≤ 10
COc1c(C(C)n2nc(C)c3c(N)ncnc32)cc(Cl)c(C)c1C1CN([C@H](C)C(=O)N(C)C)C1 (some centres undefined)	≤ 10
CCOc1c(C(C)n2nc(C)c3c(N)ncnc32)cc(Cl)c(C#N)c1-c1cncc(C(=O)N(C)C)c1 (centres undefined)	≤ 10
CCOc1c(C(C)n2nc(C)c3c(N)ncnc32)cc(C)c(C#N)c1C1CN(CCO)C1 (centres undefined)	≤ 10
COc1c(C(C)n2nc(C)c3c(N)ncnc32)cc(Cl)c(C)c1C1CCN(C)CC1 (centres undefined)	≤ 10
CCOc1c(C(C)n2nc(C)c3c(N)ncnc32)cc(Cl)c(C#N)c1C1CN(C(N)=O)C1 (centres undefined)	≤ 10
COc1c(C(C)n2nc(C(F)F)c3c(N)ncnc32)cc(C#N)c(F)c1C1CN(CCO)C1 (centres undefined)	≤ 10
COc1c(C(C)n2nc(C)c3c(N)ncnc32)cc(Cl)c(C)c1-c1ccnc(N(C)C)c1 (centres undefined)	≤ 10
CCOc1c(C(C)n2nc(C)c3c(N)ncnc32)cc(Cl)c(F)c1C1CN(CC(N)=O)C1 (centres undefined)	≤ 10
CCOc1c(C(C)n2nc(C)c3c(N)ncnc32)cc(Cl)c(C)c1C1CN(CC(C)(C)O)C1 (centres undefined)	≤ 10
COc1c(C(C)n2nc(C)c3c(N)ncnc32)cc(Cl)c(C)c1C1CNC(=O)O1 (centres undefined)	≤ 10
COc1c(C(C)n2nc(C)c3c(N)ncnc32)cc(Cl)c(C)c1C1CN(C(=O)C2CC2)C1 (centres undefined)	≤ 10

SMILES	IC50 [nM]
CCOc1c(C(C)n2nc(C)c3c(N)ncnc32)cc(Cl)c(C#N)c1C1CN(CC2CC2)C1 (centres undefined)	≤ 10
COc1c(C(C)n2nc(C)c3c(N)ncnc32)cc(Cl)c(Cl)c1C1CN(C(C)C)C1 (centres undefined)	≤ 10
COc1c(C(C)n2nc(C)c3c(N)ncnc32)cc(Cl)c(C)c1-c1ccc(C(=O)NCCO)nc1 (centres undefined)	≤ 10
CCOc1c(C(C)n2nc(C)c3c(N)ncnc32)cc(Cl)c(C#N)c1C1CN(S(C)(=O)=O)C1 (centres undefined)	≤ 10
CCOc1c(C(C)n2nc(C)c3c(N)ncnc32)cc(Cl)c(C#N)c1-c1cncnc1 (centres undefined)	≤ 10
CCOc1c(C(C)n2nc(C)c3c(N)ncnc32)cc(Cl)c(F)c1C1COC(=O)N1 (centres undefined)	≤ 10
COc1c(C(C)n2nc(C)c3c(N)ncnc32)cc(Cl)c(C#N)c1C1CN(S(=O)(=O)C2CC2)C1 (centres undefined)	≤ 10
CCOc1c(C(C)n2nc(C)c3c(N)ncnc32)cc(Cl)c(C)c1C1CN(C[C@@H](C)O)C1 (some centres undefined)	≤ 10
COc1c(C(C)n2nc(C)c3c(N)ncnc32)cc(Cl)c(C)c1C1CNC(=O)CO1 (centres undefined)	≤ 10
CCOc1c(C(C)n2nc(C)c3c(N)ncnc32)cc(C)c(C#N)c1-c1ccc(C(=O)N(C)C)nc1 (centres undefined)	≤ 10
COc1c(C(C)n2nc(C(F)F)c3c(N)ncnc32)cc(C#N)c(F)c1C1CN(C[C@H](C)O)C1 (some centres undefined)	≤ 10
CCOc1c(C(C)n2nc(C)c3c(N)ncnc32)cc(Cl)c(C#N)c1C1CN(C(C)(C)C(=O)NC)C1 (centres undefined)	≤ 10
COc1c(C(C)n2nc(C(F)F)c3c(N)ncnc32)cc(Cl)c(F)c1C1CN(CCO)C1 (centres undefined)	≤ 10
CCOc1c(C(C)n2nc(C)c3c(N)ncnc32)cc(Cl)c(C)c1C1CNC(=O)C1 (centres undefined)	≤ 10
CNC(=O)[C@@H](C)N1CC(c2c(C)c(C#N)cc(C(C)n3nc(C(F)F)c4c(N)ncnc43)c2OC)C1 (some centres undefined)	≤ 10
CCOc1c(C(C)n2nc(C)c3c(N)ncnc32)cc(Cl)c(C#N)c1C1CN(CCOC)C1 (centres undefined)	≤ 10
COc1c(C(C)n2nc(C)c3c(N)ncnc32)cc(Cl)c(C)c1C1CN(C(C)C)C1 (centres undefined)	≤ 10
CCNC(=O)c1c(C)c(Cl)cc(C(C)n2nc(-c3cnc4[nH]ccc4c3)c3c(N)ncnc32)c1OCC (centres undefined)	≤ 10
CCOc1c(C(C)n2nc(C)c3c(N)ncnc32)cc(Cl)c(C#N)c1C1CN(CC2CCOC2)C1 (centres undefined)	≤ 10
COc1c(C(C)n2nc(C)c3c(N)ncnc32)cc(Cl)c(C)c1CC#N (centres undefined)	≤ 10
